How the values were obtained:
Gastric Acid Secretion [1] = test: Inhibition of gastric acid secretion in gastric fistula beagle dogs (histamine-stimulated); assay type: in vivo; conditions: four-hour histamine stimulation; for Gastric-Fistula Beagle % Inhibition: 3 mg/kg dose; for inhibition in vivo at 3 mg/kg: Canis lupus familiaris, 4 h
From the text: Adult female beagle dogs weighing 6 to 11 kilograms obtained from Laboratory Research Enterprises (Kalamazoo, Mich.) or from Hazelton Research Animals (Cumberland, Va.) were surgically implanted with a simple Thomas-type gastric cannula. After recovery from surgery, the dogs were trained to stand quietly, fully conscious, in Pavlov-type dog restraining slings and were acclimated to intravenous infusion of histamine dihydrochloride. During the course of these studies, no dog was used more than once a week. All dogs were deprived of food, but not water, for 18 hours prior to each assay. Each dog was initially infused with 0.15 M sodium chloride solution at a constant rate of […]. The volume of gastric secretions, collected in plastic bottles affixed to the cannula, were measured to the nearest 0.1 ml at 30 minute intervals. One of the following protocols was followed, depending on the route chosen for administration of test compound.
Intravenous dosing: Following a 30-minute basal secretion period, test compounds were administered intravenously (i.v.). At the end of an additional 30 minute period, the saline infusion was replaced with histamine dihydrochloride in saline administered at a rate 15 mcg per kilogram of body weight per hour. Histamine stimulation was maintained for a maximum of four hours during which time gastric secretions were collected every 30 minutes. The pH and titratable acidity were determined for samples from each collection period.
Intragastric dosing: Following a 30-minute basal secretion period, the collection bottles were removed, dosing plugs were inserted, and test compounds were administered intragastrically (i.g.). At the end of a 30-minute drug absorption period, the stomachs were emptied, the collection bottles were reattached, and collections were resumed at 30-minute intervals. Simultaneously, the saline infusion was replaced with a continuous intravenous infusion of histamine dihydrochloride in saline administered for four hours at a rate 15 mcg per kilogram of body weight per hour.
Intraduodenal dosing: Dogs were also equipped with duodenal cannulas for intraduodenal (i.d.) administration of test compounds. Dosing was otherwise performed as described for intragastric dosing.
Data from each protocol were analyzed for three gastric sample variables: volume of gastric juice, acid concentration, and total acid output. Percent inhibition for each four-hour experimental period was determined for each parameter by comparison with 3 to 4 controls in which only food was given. Estimates of ED₅₀'s were determined from dose response curves.

Gastric Acid Secretion [2] = test: Inhibition of gastric acid secretion in meal-stimulated Pavlov pouch dog; assay type: in vivo, beagle dogs; conditions: four-hour period
Experimental: Adult female beagle dogs weighing 6 to 10 kilograms were obtained from Laboratory Research Enterprises (Kalamazoo, Mich.) or from Hazelton Research Animals (Cumberland, Va.). Surgical implantation of a Thomas-type gastric cannula into an innervated Pavlov pouch of each dog was performed by the method reported by L. Burrows et al., J. Surgical Res., 4, 147-150 (1964). After recovery from surgery, the dogs were trained to stand quietly, fully conscious, in Pavlov-type dog restraining slings. All dogs were deprived of food, but not water, for 24 hours prior to each assay. Basal acid secretion was measured by collecting from the cannulas for 30 minutes before dosing with a test compound. Solutions of the test compounds in iso-osmotic phosphate buffer (pH 7.4) were given either intravenously or directly into the Pavlov pouch. After 30 minutes the pouch was drained. The dogs were then fed 320 grams of dog food and gastric acid secretions were collected each half hour for four hours. Controls were determined in the same way except that only food (i.e., no test compound) was administered.
Data were analyzed for three different variables: volume of gastric juice, acid concentration, and total acid output. Percent inhibition for the four-hour experimental period was determined for each parameter by comparison with 3 to 4 controls. Estimates of ED₅₀ were determined from dose response curves.

(H⁺+K⁺)-ATPase = biological target: T1, (H⁺+K⁺)-ATPase (Canis lupus familiaris, UniProt P50996); test: Inhibition of (H⁺+K⁺)-ATPase from canine gastric mucosa (release of inorganic phosphate); assay type: biochemical; conditions: microsomes from canine gastric mucosa, pH 6.0, preincubated 30 min at 37°; read-out: (H⁺+K⁺)-ATPase IC₅₀
T1 construct: The microsomes retained at the 15%-30% sucrose interface, after centrifugation at 250,000xg for sixty minutes, were used as the source of (H⁺+K⁺)-ATPase; from tissue; host or cells: gastric glandular mucosa of mongrel dogs (microsomal fraction, sucrose step gradient, lyophilized)
T1 sequence (P50996 whole entry): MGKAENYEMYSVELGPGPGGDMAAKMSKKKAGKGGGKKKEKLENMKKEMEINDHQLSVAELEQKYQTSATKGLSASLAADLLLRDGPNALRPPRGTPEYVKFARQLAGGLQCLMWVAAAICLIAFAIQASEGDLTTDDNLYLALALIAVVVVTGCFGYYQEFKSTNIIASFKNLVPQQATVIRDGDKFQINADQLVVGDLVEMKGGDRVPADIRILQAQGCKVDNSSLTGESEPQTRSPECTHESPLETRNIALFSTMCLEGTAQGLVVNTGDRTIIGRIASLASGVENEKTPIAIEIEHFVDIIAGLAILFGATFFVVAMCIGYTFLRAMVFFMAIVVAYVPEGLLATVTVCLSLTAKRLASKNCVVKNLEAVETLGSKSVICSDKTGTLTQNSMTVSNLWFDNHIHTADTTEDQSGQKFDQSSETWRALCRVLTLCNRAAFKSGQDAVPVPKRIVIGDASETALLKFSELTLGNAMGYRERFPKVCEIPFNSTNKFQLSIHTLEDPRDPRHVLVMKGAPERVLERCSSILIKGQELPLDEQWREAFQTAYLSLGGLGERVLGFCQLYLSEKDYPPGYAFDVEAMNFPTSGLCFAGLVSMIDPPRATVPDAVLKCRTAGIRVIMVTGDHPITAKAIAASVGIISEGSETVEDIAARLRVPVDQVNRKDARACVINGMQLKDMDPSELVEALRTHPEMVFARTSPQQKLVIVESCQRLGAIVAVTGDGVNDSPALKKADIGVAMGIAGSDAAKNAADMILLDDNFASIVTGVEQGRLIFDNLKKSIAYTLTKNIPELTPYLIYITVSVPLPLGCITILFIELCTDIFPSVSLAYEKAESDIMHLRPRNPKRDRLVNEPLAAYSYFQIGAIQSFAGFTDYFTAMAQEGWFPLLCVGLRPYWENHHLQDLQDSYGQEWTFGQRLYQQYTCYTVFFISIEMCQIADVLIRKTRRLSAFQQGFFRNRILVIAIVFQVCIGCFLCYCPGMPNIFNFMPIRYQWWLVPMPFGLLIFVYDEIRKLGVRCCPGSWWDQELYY
T1 sequence (P33704 whole entry partner): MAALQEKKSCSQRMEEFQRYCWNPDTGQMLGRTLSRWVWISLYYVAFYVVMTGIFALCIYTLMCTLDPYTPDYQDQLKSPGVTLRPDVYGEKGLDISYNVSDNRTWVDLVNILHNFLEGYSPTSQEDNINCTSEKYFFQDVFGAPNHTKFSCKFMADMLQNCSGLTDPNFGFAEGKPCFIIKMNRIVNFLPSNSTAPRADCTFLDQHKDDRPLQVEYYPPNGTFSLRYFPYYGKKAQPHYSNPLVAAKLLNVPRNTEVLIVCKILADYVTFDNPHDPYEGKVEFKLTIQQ
Experimental: Mongrel dogs weighing 15 to 25 kilograms were fasted for twenty-four hours, with water provided ad libitum. The animals were anesthetized with pentobarbital and the stomachs were removed. Subsequent tissue manipulations and subcellular fractionations were performed at 0 to 4°C. After the stomachs were cut open and rinsed with tap water, the antral and cardiac regions were removed and the remaining tissue was rinsed three times in saline. The glandular mucosa was removed mechanically, chopped finely in a medium containing 10 mM Tris hydrochloride (pH 7.4) and 250 mM sucrose, and homogenized. The homogenate was centrifuged at 20,000xg for twenty minutes and the pellet discarded. The supernatant was then centrifuged at 150,000xg for ninety minutes and the supernatant discarded. The pellet was resuspended in the Tris-HCl/sucrose medium by homogenization. Part (2 ml) of the resultant microsomal suspension was layered onto a step gradient consisting of 9 ml of 15% sucrose above 12 ml of 30% sucrose, each sucrose solution being buffered with 10 mM Tris hydrochloride (pH 7.4) containing 0.01% sodium aside. The microsomes retained at the 15%-30% sucrose interface, after centrifugation at 250,000xg for sixty minutes, were used as the source of (H⁺+K⁺)-ATPase. Microsomal preparations were lyophilized, a process that assured potassium ion permiability, and stored at -10° until used.
(H⁺+K⁺)-ATPase activity for each test compound was determined, in duplicate, by measuring the release of inorganic phosphate, which was assayed according to the method of J. ChandraRajan and L. Klein. Anal. Biochem., 72, 407-412 (1976). The (H⁺+K⁺)-ATPase assay medium consisted of 20 mM Mes-Tris (pH 6.0), 5 mM magnesium chloride, 25 mM sucrose, and 4mM Tris-ATP with or without 20 mM potassium chloride in a total volume of 2 ml. Microsomal suspensions (20 to 60 mcl, containing about 25 mcg protein) were added to the assay medium, without Tris-ATP, and then preincubated with a test compound for thirty minutes at 37°. The assay was initiated by adding Tris-ATP and the mixture was incubated another thirty minutes at 37°. A 200-mcl aliquot of the assay mixture was then added to 1.4 ml of a solution consisting of 0.1 M sodium acetate (pH 4.0) and 10% sodium dodecylsulfate, followed by the addition of 200 mcl each of 1% ammonium molybdate and 1% ascorbic acid. At least fifteen minutes later, the optical absorbance at 870 nm (which was proportional to inorganic phosphate concentration up to 100 nmoles per tube, as determined by a standard curve) was obtained. Enzyme activity was linear with incubation time.
(H⁺+K⁺)-ATPase activity is represented by the difference between the measured activities in the presence of potassium ion (K⁺-stimulated) and in the absence of potassium ion (basal). The concentration of a test compound required to inhibit 50% of the (H⁺+K⁺)-ATPase activity (i.e., the IC₅₀) was determined at least in duplicate using linear regression analysis of results obtained for three different compound concentrations ranging from 0.1 mcM to 0.2 mM.

Molecule	IC50 ((H⁺+K⁺)-ATPase)	Gastric-Fistula Beagle % Inhibition (Gastric Acid Secretion [1]; i.d.)	also measured
Cc1ccc(N)c(C[S+]([O-])c2nc3ccccc3[nH]2)c1 (stereo not drawn) [Example 11, 2-[(1H-benzimidazol-2-ylsulfinyl)methyl]-4-methylbenzenamine]			Gastric-Fistula Beagle % Inhibition (Gastric Acid Secretion [1]; i.v.): 67 i.v. %
Cc1cccc(C[S+]([O-])c2nc3ccccc3[nH]2)c1N (stereo not drawn) [Example 13, 2-[(1H-benzimidazol-2-ylsulfinyl)methyl]-6-methylbenzenamine]		44 i.d. %	Pavlov-Pouch Dog % Inhibition (Gastric Acid Secretion [2]; 3 mg/kg): 43 (3 mg/kg) %
Cc1ccc(CSc2nc3ccccc3[nH]2)c(N)c1C [Example 22, 2-[(1H-benzimidazol-2-ylthio)methyl]-5,6-dimethylbenzenamine]	4.4 µM		inhibition in vivo at 3 mg/kg (Gastric Acid Secretion [1]; intraduodenal, i.d.): 37%
COc1ccc2[nH]c(SCc3cc(C)ccc3N)nc2c1 [Example 16, 2-[[(5-methoxy-1H-benzimidazol-2-yl)thio]methyl]-4-methylbenzenamine]	0.85 µM		
Nc1ccccc1C[S+]([O-])c1nc2ccccc2[nH]1 (stereo not drawn) [Example 3, 2-[(1H-benzimidazol-2-ylsulfinyl)methyl] benzenamine hemihydrate]		53 i.d. %	Pavlov-Pouch Dog % Inhibition (Gastric Acid Secretion [2]; 1 mg/kg): 20 (1 mg/kg) %; Pavlov-Pouch Dog % Inhibition (Gastric Acid Secretion [2]; 10 mg/kg): 87 (10 mg/kg) %
CCOc1ccc2[nH]c(SCc3cc(C)ccc3N)nc2c1 [Example 26, 2-[[(5-ethoxy-1H-benzimidazol-2-yl)thio]-methyl]-4-methylbenzenamine]	0.82 µM		
COc1ccc2[nH]c([S+]([O-])Cc3ccccc3N)nc2c1 (stereo not drawn) [Example 5, 2-[[(5-methoxy-1H-benzimidazol-2-yl)sulfinyl]methyl]benzenamine]			Pavlov-Pouch Dog % Inhibition (Gastric Acid Secretion [2]; 3 mg/kg): 19 (3 mg/kg) %; Pavlov-Pouch Dog % Inhibition (Gastric Acid Secretion [2]; 10 mg/kg): 54 (10 mg/kg) %
COc1ccc2[nH]c(SCc3cccc(C)c3N)nc2c1 [Example 18, 2-[[(5-methoxy-1H-benzimidazol-2-yl)thio]methyl]-6-methylbenzenamine]	4.2 µM		Pavlov-Pouch Dog % Inhibition (Gastric Acid Secretion [2]; 3 mg/kg): 79 (3mg/kg) %; inhibition in vivo at 3 mg/kg (Gastric Acid Secretion [1]; intraduodenal, i.d.): 66%; inhibition in vivo at 3 mg/kg (Gastric Acid Secretion [1]; iv): 91%; inhibition in vivo at 3 mg/kg (Gastric Acid Secretion [1]; po, i.g.): 43%

Now from value to molecule, other results behind:

IC50 ((H⁺+K⁺)-ATPase)	Molecule	Gastric-Fistula Beagle % Inhibition (Gastric Acid Secretion [1]; i.d.)	also measured
16 µM	COc1ccc2[nH]c([S+]([O-])Cc3c(N)cc(C)c(OC)c3C)nc2c1 (stereo not drawn) [Example 31, 2-[[(5-methoxy-1H-benzimidazol-2-yl)sulfinyl]methyl]-4-methoxy-3,5-dimethylbenzenamine]	31 i.d. %	
1.5 µM	Cc1cc(N)c(C[S+]([O-])c2nc3ccccc3[nH]2)c(C)c1C (stereo not drawn) [Example 30, 2-[(1H-benzimidazol-2-ylsulfinyl)methyl]-3,4,5-trimethylbenzenamine hemihydrate]		
5.4 µM	2-[[[(5-(trifluoromethyl)-1H-benzimidazol-2-yl]thio]methyl]benzenamine [Example 20]	72 i.d. %	Gastric-Fistula Beagle % Inhibition (Gastric Acid Secretion [1]; i.v.): 96 i.v. %
5.3 µM	2-[[[(5-(trifluoromethy)1-1H-benzimidazol-2-yl]thio]methyl]-3,6-dimethylbenzenamine [Example 28]		
